Data on two compounds can be found in US7439362B2, “Piperazinyl-or piperidinylamine-sulfamic acid amides as inhibitors of steroid sulfatase” (Novartis AG, priority 2002, dated 2008).

Data set [1] has as its target T1, steroid sulfatase in human skin homogenate (Homo sapiens, UniProt P08842).
T1 construct: Frozen specimens of human cadaver skin; from tissue; host or cells: human cadaver skin, minced and suspended in Triton X-100 buffer
T1 sequence (P08842 22-583): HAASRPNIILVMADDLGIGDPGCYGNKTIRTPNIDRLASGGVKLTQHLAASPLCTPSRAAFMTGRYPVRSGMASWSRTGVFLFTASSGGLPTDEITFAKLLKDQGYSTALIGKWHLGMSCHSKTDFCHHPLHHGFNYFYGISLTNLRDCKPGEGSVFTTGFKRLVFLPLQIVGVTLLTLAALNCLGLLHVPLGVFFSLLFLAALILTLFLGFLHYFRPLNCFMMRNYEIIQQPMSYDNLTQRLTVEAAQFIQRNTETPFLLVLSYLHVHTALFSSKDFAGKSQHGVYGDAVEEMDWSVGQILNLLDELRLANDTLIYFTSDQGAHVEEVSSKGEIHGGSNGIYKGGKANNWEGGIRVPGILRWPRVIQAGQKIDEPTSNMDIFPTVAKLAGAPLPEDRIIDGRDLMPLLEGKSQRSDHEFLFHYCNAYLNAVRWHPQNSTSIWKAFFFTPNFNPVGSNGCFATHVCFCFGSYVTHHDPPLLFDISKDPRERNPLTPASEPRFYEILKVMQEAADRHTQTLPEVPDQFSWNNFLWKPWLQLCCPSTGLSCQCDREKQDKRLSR
In words: Assay Using Human Skin Homogenate ([3H]DHEAS cleavage). To be noted: human cadaver skin homogenate; DHEAS substrate; 18 hrs at 37° C. Format: biochemical. The protocol: Frozen specimens of human cadaver skin (about 100 mg per sample) are minced Into small pieces (about 1×1 mm) using sharp scissors. The pieces obtained are suspended in ten volumes (w/w) of buffer (20 mM Tris-HCl, pH 7.5), containing 0.1% Triton X-100. Test compounds (e.g. compounds of the present invention) are added at graded concentrations from stock solutions In ethanol or DMSO. Second, DHEAS as the substrate is added (1 μC/ml [^3H]DHEAS, specific activity: about 60 Ci/mmol, and 20 μM unlabeled DHEAS).
Samples are incubated for 18 hrs at 37° C. At the end of the Incubation period, 50 μl of 1 M Tris, pH 10.4 and 3 ml of toluene are added. A 1-ml aliquot of the organic phase is removed and subjected to liquid scintillation counting. The determined dpm-values in the aliquots are converted to nmol of DHEA cleaved per g of skin per hour.

In data set [2] the target is T2, purified human steroid sulfatase (Homo sapiens, UniProt P08842).
T2 construct: Human placenta is obtained freshly after delivery; from tissue; host or cells: human placenta (microsomes, Triton X-100 extract, chromatographically purified)
T2 sequence (P08842 22-583): T1 sequence (P08842 22-583)
In words: Assay of Human Steroid Sulfatase (4-methylumbelliferyl sulfate cleavage, fluorescence). The format is biochemical. To be noted: purified human placental enzyme; 4-methylumbelliferyl sulfate substrate; 37° C., 1 hour. As for the experimental part: Human placenta is obtained freshly after delivery and stripped of membranes and connective tissues. For storage, the material is frozen at −70° C. After thawing, all further steps are carried out at 4° C., while pH values are adjusted at 20° C. 400 g of the tissue is homogenized in 1.2 l of buffer A (50 mM Tris-HCl, pH 7.4, 0.25 M sucrose). The homogenate obtained is centrifuged at 10,000×g for 45 minutes. The supernatant is set aside and the pellet obtained is re-homogenized in 500 ml of buffer A. After centrifugation, the two supernatants obtained are combined and subjected to ultracentrifugation (100,000×g, 1 hour). The pellet obtained is resuspended in buffer A and centrifugation is repeated. The pellet obtained is suspended in 50 ml of 50 mM Tris-HCl, pH 7.4 and stored at −20° C. until further work-up. […]
It is known that purified human steroid sulfatase not only is capable to cleave steroid sulfates, but also readily cleaves aryl sulfates such as 4-methylumbelliferyl sulfate which is used in the present test system as an activity indicator. […]
Plates are incubated at 37° C. for 1 hour. […] Fluorescence intensity is determined in a Titertek Fluoroskan. […]
[formula] wherein I100 is the intensity observed in the absence of inhibitor and s is a slope factor. Estrone sulfamate is used as a reference compound and its IC50 value is determined in parallel to all other test compounds. […]

What is called melting point is the temperature, or range, at which the solid turns liquid. As a reminder, the IC50 is the concentration that gives 50% inhibition. A lower IC50 goes with inhibition by little substance. Compound `NC(=O)c1ccc(C(F)(F)F)cc1N1CCC(NS(=O)(=O)NC(=O)c2cc(C(F)(F)F)cc(C(F)(F)F)c2)CC1` [Example 1, N-[[4-[1-(2-Aminocarbonyl-5-trifluoromethyl-phenyl)]-piperidinyl]-amino]-sulfonyl-3,5-bis-trifluoromethyl-benzamide] showed a melting point of 192 to 195 °C. Besides, in data set [1], the IC50 lay in the range of 30 to 270 nM.
Regarding `CC12CCC3c4ccc(OS(N)(=O)=O)cc4CCC3C1CCC2=O` (stereo not drawn) [estrone sulfamate], the half-maximal inhibitory concentration (IC50) in data set [2] is about 60 nM.
